{"source": "patent US10669545B2", "about": "“Tumor cell malignant transformation suppressor and anti-tumor agent” (JAPAN SCIENCE AND TECHNOLOGY AGENCY, priority 2015, dated 2020)", "assay_type_in_all_cases": "cell-based, human", "key": {"A375 cells [1]": {"tested_on": "A375 cells", "experiment": "Cell morphology after siRNA transfection, A375 cells", "details": "not shown"}, "SK-MEL-28 cells": {"tested_on": "SK-MEL-28 cells", "experiment": "Cell morphology after siRNA transfection, SK-MEL-28 cells", "details": "not shown"}, "[2]": {"tested_on": "stably Zic5 gene-expressed line (SK-MEL-28 cells)", "experiment": "Transwell Migration Assay, stably Zic5 gene-expressed line", "details": "normalized to total viable cells; siNeg#1 set to 1", "method": "Specifically, the stably Zic5 gene-expressed line and the stably Flag-expressed line were seeded in a 24-well plate into which an insert with 8-μm sized pores (manufactured by BD Biosciences) was put and were cultured in RPMI 1640 medium containing 10% FBS, and then the number of migrated cells was counted.\nThe influence of suppressing MLC2 phosphorylation on migration ability of cells was analyzed. Specifically, Transwell Migration Assay was performed in the same manner as above with the stably Zic5 gene-expressed line and the stably Flag-expressed line in a state of being treated or non-treated with a ROCK inhibitor (Y27632), and then the number of migrated cells was counted.\nThe number of migrated cells was normalized to a total number of viable cells. A relative cell number (n=3) in which the number of migrated cells transfected with siNeg#1 of each cell was set to 1 is shown in FIG. 29. The statistical difference was determined by the Tukey's multiple comparisons of means test (**: P<0.01, *: P<0.05)."}, "A375 cells [3]": {"tested_on": "A375 cells", "experiment": "Cell proliferation / cell number count, A375 cells", "method": "In cell proliferation assay, A375 cells and SK-MEL-28 cells transfected with siZIC5#1, siZIC5#2, siNeg#1, or siNeg#2 described in Table 2 in the same manner as Example 1 were plated at 1,000 to 2,000 cells/well in 96-well plates. The number of cells transfected with each siRNA was measured over time. Regarding counting the number of cells, cell nuclei were stained with Hoechst 33342 (manufactured by Dojindo, Kumamoto, Japan), and the total cell number in each well was counted by using an IN Cell Analyzer 2000 (manufactured by GE Healthcare, Piscataway, N.J.).\nFurthermore, a cell cycle of each cell was examined with respect to A375 cells. An average value (SD) of percentages (%) of cells in G1 population, S population, and G2M population of each cell is shown in Table 9. […] As a result, percentages of cells in the S population and G2M population of A375 cells were reduced by PDGFD gene knockdown.\nIn addition, the number of cells of A375 cells transfected with siPDGFD#1, siPDGFD#2, or siNeg#1 was successively counted. The statistical difference was determined using the Dunnett's multiple comparisons of means test (**: P<0.01, *: P<0.05).\nThe result of a relative cell number (n=3) in which the number of cells of the cells treated with rat IgG was set to 1 is shown in FIG. 28. […]"}, "[4]": {"tested_on": "phosphorylated ERK1/2 (Thr202/204) (pERK)", "experiment": "Western blotting of phosphorylated ERK1/2", "details": "vemR-3 cells; PLX4032 or DMSO treatment; siRNA vs siNeg", "method": "Western blotting was performed in the same manner as above except that anti-pAKT antibody (manufactured by Cell Signaling), anti-AKT antibody (manufactured by Cell Signaling), anti-pERK antibody (manufactured by Cell Signaling), anti-ERK antibody (manufactured by Cell Signaling), and anti-β-actin antibody (manufactured by Sigma) were used.\nvemR-1 to 3 cells and HT144 cells were treated with DMSO or PLX4032 solution (which was dissolved in DMSO to become 5 μM) for 48 hours, and the level of pAKT, AKT, pERK, ERK, and β-actin of these cells was assessed by western blotting in the same manner as Example 8.\nA375 cells were treated in a medium in which a concentration of a FAK inhibitor I (manufactured by Calbiochem) was 0, 1, 2.5, or 5 μM for 24 hours, and the level of ZIC5, pro-PDGFD, pERK, and β-actin was measured by western blotting. Western blotting was performed in the same manner as above except that anti-ZIC5 antibody (manufactured by Aviva systems biology), anti-PDGFD antibody (manufactured by Santa Cruz), anti-pERK antibody (manufactured by Cell Signaling), and anti-β-actin antibody (manufactured by Sigma) were used.\nA375 cells were treated in a medium in which a concentration of Interleukin-6 (IL-6) (manufactured by Novus Biologicals) was 0, 10, or 20 ng/mL for 24 hours, and then western blotting was performed to assess the level of ZIC5, pro-PDGFD, pSTAT3, STAT3, and GAPDH. […]"}, "DU145 cells": {"tested_on": "DU145 cells", "experiment": "Annexin V-positive cells, DU145 cells", "details": "siRNA then docetaxel 5 nM for 24 hours", "method": "(§1) The percentage of Annexin V-positive cells was measured as follows. First, FITC labeled Annexin V (manufactured by MBL, Nagoya, Japan) and Hoechst33342 were added to each cell and incubated for 40 minutes. Next, a stained state of the incubated cells was analyzed by using DAPI filter and FITC filter of an imaging cytometer, “In Cell Analyzer 2000” (manufactured by GE healthcare). Percentage (%) of […] was determined by In Cell Analyzer Workstation 3.7 (manufactured by GE healthcare). The statistical difference was determined by the Tukey's multiple comparisons of means test (**: P<0.01, *: P<0.05)."}, "vemR-3 cells": {"tested_on": "vemR-3 cells", "experiment": "Annexin V-positive cells, vemR-3 cells", "details": "vs siNeg", "method": "as §1\nA percentage of apoptotic cells in the obtained cells was detected by using FITC labeled Annexin V (manufactured by MBL, Nagoya, Japan) in the same manner as Example 7."}}}
{"substance": "siPDGFD#1: siRNA for PDGFD gene; targeting sequence CAGGAATTACTCGGTCAATAT (SEQ. NO. 28) (listed as DNA, chemistry not given here)", "values": [{"measurement": "morphological change of cells after siRNA transfection", "setting": "A375 cells [1]", "value": "morphological change occurred"}, {"measurement": "morphological change of cells after siRNA transfection", "setting": "SK-MEL-28 cells", "value": "morphological change occurred"}, {"measurement": "increase in the number of migrated cells by Zic5 gene overexpression", "setting": "[2]", "value": "completely suppressed"}, {"measurement": "relative cell number (siNeg#1 set to 1), cell proliferation rate", "setting": "A375 cells [3]", "value": "decrease in cell proliferation rate"}, {"measurement": "pERK level (inactivation of ERK)", "setting": "[4]", "value": "the pERK level decreased"}, {"measurement": "apoptosis induced by docetaxel (percentage of Annexin V-positive cells)", "setting": "DU145 cells", "value": "significantly increased"}, {"measurement": "percentage of Annexin V-positive cells", "setting": "vemR-3 cells", "value": "significantly increased"}]}
